The results in this text go back to patent US7829118B1, “Modified hyaluronic acid polymer compositions and related methods” (Carbylan Biosurgery, Inc., priority 2009, dated 2010).

Several values for one entry are separate records, joined by “and”; a condition that tells them apart may be missing. Identical values can stand only once.

The data set concerns Femoral Cartilage (medial femoral condyle) of goat stifle joint. Nature of the data set: Modified Mankin scoring of femoral cartilage after intra-articular injection in goats (Example 34). Type of data set: in vivo. The conditions noted are these: for Total Mankin Score / Mankin Score: Tide Mark Integrity / Mankin Score: Cells / Mankin Score: Safranin-O Stain / Mankin Score: Structure: RFC. Here is the method: A lightly crosslinked hydrogel prepared by reaction of vinyl-sulfone-modified hyaluronic acid with PEG-dithiol (HA-VS-PEG-(SH)2), containing the corticosteroid, triamcinolone acetonide, was injected into the intraarticular space of the stifle joint of female goats. Morphological, synovial fluid and histological examinations were conducted to evaluate local and systemic effects of such injections. Details of the study are provided below.
All test materials were stored at room temperature prior to use. For each Test or Control Material, a 1.5 ml dosage was prepared for each individual intra-articular injection.
Study design was as follows.
The basic procedure for injection was identical for all subjects. All injections were performed under strict asepsis. The animals were anesthetized with an intravenous injection of Diazepam (0.1-0.5 mg/kg) and Ketamine (4.4-7.5 mg/kg) to effect. Each knee was physically examined for drawer, range of motion, swelling, temperature, crepitus, patella tracking, and valgus/varus abnormalities
All injections were conducted utilizing routine aseptic techniques. The left and right stifles were prepared for injection by clipping the areas, then cleansing them with chlorohexidine scrub. The animal was placed in dorsal recumbency. The right stifle was cleansed with chlorohexidine scrub alternating with 70% isopropyl alcohol three times and painted with iodine solution.
A standard technique was used to inject each stifle joint. A 2-inch by 21gauge sized sterile needle was introduced into the intra-articular space via an anteromedial approach. The lateral intercondylar notch wall of the medial femoral condyle was felt and the needle backed slightly off. 1.5 ml of the appropriate Test Material was injected into the right joint. The injection needle was removed and pressure was maintained on the injection site. The injected stifle joint was then cycled 20-times through a full range of motion. Immediately following this, the left stifle joint was cleansed with chlorohexidine scrub alternating with 70% isopropyl alcohol three times and painted with iodine solution and 1.5 ml of the Control Material was injected into the left stifle joint in a similar manner as described above for the right stifle. The injection needle was removed and pressure maintained on the injection site. The injected stifle joint was then cycled 20-times through a full range of motion.
Necropsy: Animals were humanely sacrificed at either 14 days or 28 days day post initial injection with an intravenous injection consisting of Diazepam 0.22 mg/kg and Ketamine 10 mg/kg for induction of general anesthesia. Following this, the anesthetized animals were given an IV overdose of concentrated potassium chloride (KCl) until the cardiac arrest had been verified.
Immediately after dissection and following gross joint surface evaluation a sagital section of each joint was cut through the medial femoral condyle (MFC). These sections were placed individually in 10% neutral buffered formalin. The fixed tissue was shipped by overnight carrier to Premier Laboratories for processing. The right and left MFC sections were processed using standard histological techniques and stained with hematoxylin and eosin (H&E) and Safranin-O (SAF-O) with a fast green counter stain. The slides from the MFC sections were evaluated by the Mankin Scoring System for osteoarthritis as described in Table 12.

The mark [1] stands for this setting: Group 4, 8mg/ml, 14 day evaluation, MEAN.
The mark [2] stands for this setting: Group 8, 8mg/ml, 28 day evaluation, MEAN, animal that died prematurely not included.
Where [3] appears, read: Group 3, 2mg/ml, 14 day evaluation, MEAN.
Setting [4] is: Group 7, 2mg/ml, 28 day evaluation, MEAN.

With `CC1(C)O[C@@H]2C[C@H]3[C@@H]4CCC5=CC(=O)C=C[C@]5(C)[C@@]4(F)[C@@H](O)C[C@]3(C)[C@]2(C(=O)CO)O1` [Triamcinolone Acetonide, triamcinolone acetonide], the “loss of Safranin O staining intensity portion of the modified Mankin score compared to either Groups 5 or 6” value (Day 28, Groups 7 and 8 (2 and 8 mg/ml)) is recorded as “mild increase”. For the setting “goat stifle, 1.5 ml intra-articular”, the “change in modified Mankin scores from Day 14 to Day 28” value is “increase”.
On to `CC1(C)O[C@@H]2C[C@H]3[C@@H]4CCC5=CC(=O)C=C[C@]5(C)[C@@]4(F)[C@@H](O)C[C@]3(C)[C@]2(C(=O)CO)O1` [Triamcinolone Acetonide 8mg/ml, triamcinolone acetonide], for which the “Total Mankin Score” value (Group 4, 8mg/ml, 14 day evaluation, right stifle 1.5 ml intra-articular, individual goats, maximal 14, normal 0) was 9.0 and 3.0 and 4.0; the “Total Mankin Score” value under setting [1] is reported as 5.3; the “Total Mankin Score” value (Group 8, 8mg/ml, 28 day evaluation, right stifle 1.5 ml intra-articular, individual goats (3588 RFC* died prematurely, 19 days), maximal 14, normal 0) is 12.0 and 6.0; the “Total Mankin Score” value (Group 8, 8mg/ml, 28 day evaluation, right stifle 1.5 ml intra-articular, individual goats (3588 RFC* died prematurely, 19 days), maximal 14, normal 0, listed as Triamcinolone Acetonide 8mg/m1) is recorded as 10.0; the “Total Mankin Score” value under setting [2] came to 9.0. Moreover, the “Mankin Score: Tide Mark Integrity” value reads like this: (Group 4, 8mg/ml, 14 day evaluation, right stifle 1.5 ml intra-articular, individual goats, score 0-1) 0.0; under setting [1], 0.0; (Group 8, 8mg/ml, 28 day evaluation, right stifle 1.5 ml intra-articular, individual goats (3588 RFC* died prematurely, 19 days), score 0-1) 0.0; under setting [2], 0.0. For the same compound, the “Mankin Score: Cells” value reads like this: (Group 4, 8mg/ml, 14 day evaluation, right stifle 1.5 ml intra-articular, individual goats, score 0-3) 1.0 and 0.0 (2×); under setting [1], 0.3; (Group 8, 8mg/ml, 28 day evaluation, right stifle 1.5 ml intra-articular, individual goats (3588 RFC* died prematurely, 19 days), score 0-3) 3.0 and 1.0; (Group 8, 8mg/ml, 28 day evaluation, right stifle 1.5 ml intra-articular, individual goats (3588 RFC* died prematurely, 19 days), score 0-3, listed as Triamcinolone Acetonide 8mg/m1) 3.0; under setting [2], 2.0. In addition, the “Mankin Score: Safranin-O Stain” value was 3.0 (2×) and 4.0 (Group 4, 8mg/ml, 14 day evaluation, right stifle 1.5 ml intra-articular, individual goats, score 0-4); 3.3 under setting [1]; 4.0 (Group 8, 8mg/ml, 28 day evaluation, right stifle 1.5 ml intra-articular, individual goats (3588 RFC* died prematurely, 19 days), score 0-4); 3.0 (Group 8, 8mg/ml, 28 day evaluation, right stifle 1.5 ml intra-articular, individual goats (3588 RFC* died prematurely, 19 days), score 0-4, listed as Triamcinolone Acetonide 8mg/m1); 4.0 under setting [2]. For the same compound, the “Mankin Score: Structure” value runs as follows: (Group 4, 8mg/ml, 14 day evaluation, right stifle 1.5 ml intra-articular, individual goats, score 0-6) 5.0 and 0.0 (2×); under setting [1], 1.7; (Group 8, 8mg/ml, 28 day evaluation, right stifle 1.5 ml intra-articular, individual goats (3588 RFC* died prematurely, 19 days), score 0-6) 5.0 and 1.0; (Group 8, 8mg/ml, 28 day evaluation, right stifle 1.5 ml intra-articular, individual goats (3588 RFC* died prematurely, 19 days), score 0-6, listed as Triamcinolone Acetonide 8mg/m1) 4.0; under setting [2], 3.0.
`CC1(C)O[C@@H]2C[C@H]3[C@@H]4CCC5=CC(=O)C=C[C@]5(C)[C@@]4(F)[C@@H](O)C[C@]3(C)[C@]2(C(=O)CO)O1` [Triamcinolone Acetonide 2mg/ml, triamcinolone acetonide]: the “Total Mankin Score” value is 4.0 and 7.0 and 8.0 (Group 3, 2mg/ml, 14 day evaluation, right stifle 1.5 ml intra-articular, individual goats, maximal 14, normal 0); 6.3 under setting [3]; 6.0 and 9.0 and 10.0 (Group 7, 2mg/ml, 28 day evaluation, right stifle 1.5 ml intra-articular, individual goats, maximal 14, normal 0); 8.3 under setting [4]. In addition, the “Mankin Score: Tide Mark Integrity” value is listed as 0.0 (Group 3, 2mg/ml, 14 day evaluation, right stifle 1.5 ml intra-articular, individual goats, score 0-1); 0.0 under setting [3]; 0.0 (Group 7, 2mg/ml, 28 day evaluation, right stifle 1.5 ml intra-articular, individual goats, score 0-1); 0.0 under setting [4]. The “Mankin Score: Cells” value by setting is: (Group 3, 2mg/ml, 14 day evaluation, right stifle 1.5 ml intra-articular, individual goats, score 0-3) 0.0 and 1.0 (2×); under setting [3], 0.7; (Group 7, 2mg/ml, 28 day evaluation, right stifle 1.5 ml intra-articular, individual goats, score 0-3) 2.0 (2×) and 3.0; under setting [4], 2.3. Besides, the “Mankin Score: Safranin-O Stain” value reads like this: (Group 3, 2mg/ml, 14 day evaluation, right stifle 1.5 ml intra-articular, individual goats, score 0-4) 4.0 and 2.0 and 3.0; under setting [3], 3.0; (Group 7, 2mg/ml, 28 day evaluation, right stifle 1.5 ml intra-articular, individual goats, score 0-4) 4.0 and 3.0 (2×); under setting [4], 3.3. The “Mankin Score: Structure” value runs as follows: (Group 3, 2mg/ml, 14 day evaluation, right stifle 1.5 ml intra-articular, individual goats, score 0-6) 0.0 and 4.0 (2×); under setting [3], 2.7; (Group 7, 2mg/ml, 28 day evaluation, right stifle 1.5 ml intra-articular, individual goats, score 0-6) 0.0 and 4.0 (2×); under setting [4], 2.7.
